# Data as given in patent US7435724B2, “Degradation-resistant mononucleoside phosphate compounds” (Inspire Pharmaceutical, Inc., priority 2002, dated 2008).
# Test system: whole blood platelet aggregation
# Assay: Platelet aggregation assay, whole blood (ADP-induced, impedance mode)
# Type: cell-based, human (healthy volunteers)
# Conditions: Homo sapiens, read-out: PLATELET DATA IC50 Whole Blood, inhibition of aggregation by maximally effective ADP, whole blood diluted 1:1 with saline
# Procedure: Blood was collected from healthy volunteers into syringes containing ⅙final blood volume of anti-coagulant ACD (65 mM citric acid, 85 mM sodium citrate, 110 mM dextrose) for washed platelet (WP) preparation or into a syringe containing a final concentration of 10 units/mL heparin or 300 μM PPACK for whole blood (WB) assays. The blood collected for whole blood assays was maintained at room temperature and immediately tested as described below. The blood collected for WP) was centrifuged at 180 g for 15 minutes and the supernatant (platelet rich plasma) was removed. […] Platelet aggregation was measured using the optical mode of a ChronoLog aggregometer (Havertown, Pa.). […] A maximally effective concentration of ADP (typically a concentration that produces between 90 and 100 percent of the maximal response) was added to the sample and aggregation was monitored for 8 minutes. […]
# The potency of agonists and inhibitors of platelet aggregation was calculated from both, the rate of aggregation and the maximal extent of aggregation obtained for each determination by fitting the data to a four-parameter logistic equation using the GraphPad software package (GraphPad Corp. San Diego, Calif.).
compound,measurement,value
"CCNC(=O)Nc1ncnc2c1ncn2[C@@H]1O[C@H](COP(=O)(O)OC)C2O[C@H](/C=C/c3ccccc3)O[C@@H]21 (stereo partly drawn) [Compound 217, 2′,3′-(trans)-O-methylenestyryl-5′-(methylphosphate)-N^6-ethylaminocarbonyl-adenosine]",IC50,2.5 µM
